Data on two compounds can be found in PMC4538536, “In Silico-Based High-Throughput Screen for Discovery of Novel Combinations for Tuberculosis Treatment” (Antimicrobial Agents and Chemotherapy, 2015).

In data set [1] the test system is M. tuberculosis H37Rv. The data set is described as follows: MIC determination, resazurin-based microplate assay. The class given is cell-based, Mycobacterium tuberculosis. The following applies: Mycobacterium tuberculosis, single drug.
The test system of data set [2] is M. tuberculosis H37Rv. The data set is described as follows: In vitro bactericidal-effect analysis (CFU enumeration of checkerboard wells). It is filed as cell-based, Mycobacterium tuberculosis. As to conditions: single drug at its MIC (FIC of 1); positive = reduction in CFU. The procedure, abridged:
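Wells staying blue in REMA checkerboards with ΣFIC <0.7 (pairs) or <1.5 (triplets) plated on Middlebrook 7H10, 37°C for 21 to 28 days; CFU reduction computed versus untreated start-of-testing counts and versus each drug alone.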

Data set [3] can be described thus: In vivo pharmacokinetics in infected mice (plasma, LC-MS/MS). Set-up: species or system BALB/c mice. As to conditions: mouse; for AUC(0-t) / Cmax: po, steady state, infected mice.
The conditions of data set [4]: in vivo, 25 mg/kg; cited from earlier work.
Setting [5] is: BALB/c, plasma, 25 mg/kg, Group 5 triplet EMB 100/BDQ 25/SQ109 25 mg/kg oral, read-out: AUC0-24 in Triplet.
Where [6] appears, read: BALB/c, plasma, 25 mg/kg, Group 5 triplet EMB 100/BDQ 25/SQ109 25 mg/kg oral, read-out: Cmax in Triplet.
Setting [7] is: BALB/c, plasma, 50 mg/kg, Group 2 triplet SQ109 25/BDQ 25/PA824 50 mg/kg oral, read-out: AUC0-24 in Triplet.
Setting [8] is: BALB/c, plasma, 50 mg/kg, Group 2 triplet SQ109 25/BDQ 25/PA824 50 mg/kg oral, read-out: Cmax in Triplet.
Where [9] appears, read: BALB/c, plasma, 150 mg/kg, Group 2 quartet SQ109 25/BDQ 25/PA824 50/PZA 150 mg/kg oral, read-out: AUC0-24 in Quartet.
The mark [10] stands for this setting: BALB/c, plasma, 150 mg/kg, Group 2 quartet SQ109 25/BDQ 25/PA824 50/PZA 150 mg/kg oral, read-out: Cmax in Quartet.
The mark [11] stands for this setting: BALB/c, plasma, 150 mg/kg, Group 5 quartet EMB 100/BDQ 25/SQ109 25/PZA 150 mg/kg oral, read-out: AUC0-24 in Quartet.
Setting [12] is: BALB/c, plasma, 150 mg/kg, Group 5 quartet EMB 100/BDQ 25/SQ109 25/PZA 150 mg/kg oral, read-out: Cmax in Quartet.

SMILES strings stand for the structures. Values after ≈ are worked out from the molar mass of the structure shown. Where two headings read alike, the source gives them in different places.

As usually defined, the MIC is the smallest concentration in the dilution series that meets the test's criterion for growth inhibition. The low end stands for inhibition by little substance, the high end for a need for much substance. The term Cmax denotes the peak of the concentration-time curve. `COc1nc2ccc(Br)cc2cc1[C@@H](c1ccccc1)[C@@](O)(CCN(C)C)c1cccc2ccccc12` [Bedaquiline] showed an MIC against M. tuberculosis H37Rv [1] of 0.35 µM (≈ 0.194 µg/mL). The “ΔLog10 CFU/ml at the MIC” value in the data set on M. tuberculosis H37Rv [2] is given as 0.02 Log10 CFU/ml. Moreover, the AUC(0-t) in data set [3] (setting [5]) stood at 22200 ± 1600 ng·h/mL; in data set [3] (BALB/c, plasma, 50 mg/kg, Group 1 triplet CFZ 20/BDQ 25/PA824 50 mg/kg oral, read-out: AUC0-24 in Triplet), 21000 ± 1700 ng·h/mL; in data set [3] (setting [7]), 34900 ± 5800 ng·h/mL; in data set [3] (BALB/c, plasma, 100 mg/kg, Group 8 triplet PA824 50/BDQ 25/EMB 100 mg/kg oral, read-out: AUC0-24 in Triplet), 43300 ± 6000 ng·h/mL; in data set [3] (BALB/c, plasma, 150 mg/kg, Group 1 quartet CFZ 20/BDQ 25/PA824 50/PZA 150 mg/kg oral, read-out: AUC0-24 in Quartet) it was 30900 ± 5200 ng·h/mL; in data set [3] (setting [9]) it was 31400 ± 5400 ng·h/mL. Besides, the AUC(0-t) in data set [3] (setting [11]) came to 21500 ± 1600 ng·h/mL; in data set [3] (BALB/c, plasma, 150 mg/kg, Group 7 quartet PA824 50/BDQ 25/MXF 400/PZA 150 mg/kg oral, read-out: AUC0-24 in Quartet) it was 24600 ± 2900 ng·h/mL; in data set [3] (BALB/c, plasma, 150 mg/kg, Group 8 quartet PA824 50/BDQ 25/EMB 100/PZA 150 mg/kg oral, read-out: AUC0-24 in Quartet) it was 50700 ± 8900 ng·h/mL; in data set [3] (BALB/c, plasma, 400 mg/kg, Group 7 triplet PA824 50/BDQ 25/MXF 400 mg/kg oral, read-out: AUC0-24 in Triplet) it was 63200 ± 16700 ng·h/mL. Moreover, the Cmax in data set [3] (setting [6]) is 2000 ± 600 ng/mL; in data set [3] (BALB/c, plasma, 50 mg/kg, Group 1 triplet CFZ 20/BDQ 25/PA824 50 mg/kg oral, read-out: Cmax in Triplet) it was 1600 ± 100 ng/mL; in data set [3] (setting [8]), 3600 ± 2800 ng/mL; in data set [3] (BALB/c, plasma, 100 mg/kg, Group 8 triplet PA824 50/BDQ 25/EMB 100 mg/kg oral, read-out: Cmax in Triplet), 3100 ± 200 ng/mL; in data set [3] (BALB/c, plasma, 150 mg/kg, Group 1 quartet CFZ 20/BDQ 25/PA824 50/PZA 150 mg/kg oral, read-out: Cmax in Quartet), 2600 ± 500 ng/mL; in data set [3] (setting [10]), 2300 ± 500 ng/mL. Also, the highest concentration (Cmax) stood at 1700 ± 700 ng/mL in data set [3] (setting [12]); 4500 ± 1300 ng/mL in data set [3] (BALB/c, plasma, 150 mg/kg, Group 7 quartet PA824 50/BDQ 25/MXF 400/PZA 150 mg/kg oral, read-out: Cmax in Quartet); 4200 ± 1500 ng/mL in data set [3] (BALB/c, plasma, 150 mg/kg, Group 8 quartet PA824 50/BDQ 25/EMB 100/PZA 150 mg/kg oral, read-out: Cmax in Quartet); 3600 ± 100 ng/mL in data set [3] (BALB/c, plasma, 400 mg/kg, Group 7 triplet PA824 50/BDQ 25/MXF 400 mg/kg oral, read-out: Cmax in Triplet).
Broadly, the AUC is the area under the concentration-time curve, a measure of exposure. In the case of `CC(C)=CCC/C(C)=C/CNCCNC1C2CC3CC(C2)CC1C3` (centres unmarked) [SQ109], in the data set with M. tuberculosis H37Rv [1], it took 1.18 µM (≈ 0.39 µg/mL) to inhibit growth (MIC). For the same compound, in the data set on M. tuberculosis H37Rv [2], the “ΔLog10 CFU/ml at the MIC” value was 1.40 Log10 CFU/ml. Further, the AUC in data set [3] (BALB/c, plasma, oral, SQ109 25 mg/kg, EMB 100 mg/kg, in 3- and 4-drug combinations, read-out: observed AUC in combinations) lay within 2000 to 8900 ng·h/mL. The AUC(0-t) in data set [3] (setting [5]) worked out at 7800 ± 4900 ng·h/mL; in data set [3] (BALB/c, plasma, 25 mg/kg, Group 6 triplet BTZ043 37.5/THI 800/SQ109 25 mg/kg oral, read-out: AUC0-24 in Triplet) it was 3100 ± 300 ng·h/mL; in data set [3] (setting [7]), 8900 ± 3700 ng·h/mL; in data set [3] (BALB/c, plasma, 130 mg/kg, Group 9 triplet EMB 100/SQ109 25/LZD 130 mg/kg oral, read-out: AUC0-24 in Triplet) it was 4700 ± 1400 ng·h/mL; in data set [3] (setting [9]), 5100 ± 800 ng·h/mL; in data set [3] (BALB/c, plasma, 150 mg/kg, Group 3 quartet BTZ043 37.5/SQ109 25/MXF 200/PZA 150 mg/kg oral, read-out: AUC0-24 in Quartet), 1800 ± 400 ng·h/mL. The AUC(0-t) in data set [3] (setting [11]) worked out at 4900 ± 100 ng·h/mL; in data set [3] (BALB/c, plasma, 150 mg/kg, Group 6 quartet BTZ043 37.5/THI 800/SQ109 25/PZA 150 mg/kg oral, read-out: AUC0-24 in Quartet), 4900 ± 2200 ng·h/mL; in data set [3] (BALB/c, plasma, 150 mg/kg, Group 9 quartet EMB 100/SQ109 25/LZD 130/PZA 150 mg/kg oral, read-out: AUC0-24 in Quartet), 7600 ± 3600 ng·h/mL; in data set [3] (BALB/c, plasma, 200 mg/kg, Group 3 triplet BTZ043 37.5/SQ109 25/MXF 200 mg/kg oral, read-out: AUC0-24 in Triplet) it was 2100 ± 800 ng·h/mL. The Cmax in data set [3] (setting [6]) was found to be 5500 ± 5100 ng/mL; in data set [3] (BALB/c, plasma, 25 mg/kg, Group 6 triplet BTZ043 37.5/THI 800/SQ109 25 mg/kg oral, read-out: Cmax in Triplet) it was 900 ± 500 ng/mL; in data set [3] (setting [8]), 5200 ± 2700 ng/mL; in data set [3] (BALB/c, plasma, 130 mg/kg, Group 9 triplet EMB 100/SQ109 25/LZD 130 mg/kg oral, read-out: Cmax in Triplet) it was 900 ± 400 ng/mL; in data set [3] (setting [10]), 3500 ± 1400 ng/mL; in data set [3] (BALB/c, plasma, 150 mg/kg, Group 3 quartet BTZ043 37.5/SQ109 25/MXF 200/PZA 150 mg/kg oral, read-out: Cmax in Quartet) it was 500 ± 200 ng/mL. In addition, the Cmax came out at 2700 ± 500 ng/mL in data set [3] (setting [12]); 3100 ± 2800 ng/mL in data set [3] (BALB/c, plasma, 150 mg/kg, Group 6 quartet BTZ043 37.5/THI 800/SQ109 25/PZA 150 mg/kg oral, read-out: Cmax in Quartet); 3500 ± 3100 ng/mL in data set [3] (BALB/c, plasma, 150 mg/kg, Group 9 quartet EMB 100/SQ109 25/LZD 130/PZA 150 mg/kg oral, read-out: Cmax in Quartet); 700 ± 500 ng/mL in data set [3] (BALB/c, plasma, 200 mg/kg, Group 3 triplet BTZ043 37.5/SQ109 25/MXF 200 mg/kg oral, read-out: Cmax in Triplet). Also, the “plasma exposure in combination compared with individual (reported) exposure” value in data set [3] (in vivo) was “higher”. In data set [4], the “reported AUC” value is 250 ng·h/mL.
